# Assay results reported in US4443438A (priority 1978, dated 1984).
# Where two headings read alike, the source gives them in different places.
# Tests used:
# [1] = test system: pesticide-resistant green rice leafhopper (Nephotettix cincticeps); assay: whole plant or invertebrate; format: in vivo; conditions: for mortality at 0.0225 % / mortality at 0.0125 %: Nephotettix cincticeps, 24 h, read-out: Mortality (%) after 24 hours
# Description: The dilute solution was sprayed on rice plants in a 180-ml plastic cup at a rate of 15 cc/3 cups by means of a turn table. After air-drying, the treated rice plants were placed in a 5-liter beaker which was then covered with gauze. About 15 female adults of pesticide-resistant green rice leafhopper (Nephotettix cincticeps) were released in the beaker. After 3 hours, the knock-down ratio was examined, and after 24 hours the mortality was examined.
# [2] = Fish toxicity to carps, TLm48 (Experimental example 6); format: in vivo; conditions: carp, in vivo, read-out: TLm48 (ppm)
# Description: (§1) Ten liters of the dilute solution was placed in a 10-liter glass vessel and 10 carps were liberated therein. After 48 hours, the dead and alive were examined to calculate TLm48 (ppm).
# [3] = test system: green rice leafhoppers (Nephotettix cincticeps); assay: Density index of green rice leafhopper adults in paddy field, sweeping method (Experimental example 1); format: in vivo; conditions: 3 kg/10 are, untreated = 100
# harmful organisms = conditions: reported in Published Unexamined Japanese Patent Application No. 125145/1977; cited from earlier work
# [4] = test system: pesticide-resistant green rice leafhopper (Nephotettix cincticeps); assay: Mortality of pesticide-resistant green rice leafhopper on dusted rice plants (Experimental example 3); format: in vivo; conditions: 2 kg/10 are
# Description: The dusts (36), (37), (39), (43), (47) or (48) prepared in Preparation example 2 were each applied by means of a Bell jar duster to rice plants in a 1/10,000 are Wagner's pot at a rate of 2 kg/10 are. The treated pot was placed in a cylinder (diameter 20 cm, height 60 cm) which was then covered with gauze. About 30 female adults of pesticide-resistant green rice leafhopper (Nephotettix cincticeps) were liberated therein. After 24 hours, the mortality was examined.
# carps = assay: Fish toxicity to carps, TLm48 (Experimental example 6); format: in vivo; conditions: as 0.3% dust; 48 hours
# Description: as §1
# in vivo = conditions: mouse, po
# [5] = test system: rice stem borer (Chilo suppressalis); assay: Mortality of rice stem borer on dusted rice plants (Experimental example 4); format: in vivo; conditions: 3 kg/10 are, five days after application, 7200 min
# Source text: About 50 eggs just before hatch of rice stem borer (Chilo suppressalis) were put on rice plants at the tiller stage cultivated in a 1/5,000 are Wagner's pot. After 5 days, the dust (1) prepared in Preparation example 2 was applied thereto at a rate of 3 kg/10are by means of a Bell jar duster. Five days after application, the rice stem was dissected to observe the dead and alive of rice stem borers.
# [6] = 25% wettable powder, diluted 2,000 times
# [7] = as 20% wettable powder, diluted 25,000 times
compound,measurement,setting,value
"CC(C)OP(=O)(OC(C)C)SCc1ccccc1 [IBP, O,O-Diisopropyl S-benzylphosphorothioate]",mortality at 0.0225 %,[1],0%
same,Knock-down ratio (%) after 3 hours,[1]; in vivo,0%
same,LC50 at 48 h,[2]; as 0.3% dust,> 5 µg/mL
"CCOP(=S)(OCC)Oc1cc(C)nc(C(C)C)n1 [Diazinon, O,O-Diethyl O-(2-isopropyl-4-methyl-6-pyrimidinyl)phosphorothioate]",Density index After 2 days,[3]; as 5% dust,20
same,Density index After 15 days,[3]; as 5% dust,35
same,LC50 at 48 h,[2]; as 0.3% dust,> 5 µg/mL
"CC1(C)C(C=C(Cl)Cl)C1C(=O)OC(C#N)c1cccc(Oc2ccc(Br)cc2)c1 (stereo not drawn) [compound of the formula (I), m-(p-bromophenoxy)-α-cyanolbenzyl trans- or trans-rich-2,2-dimethyl-3-(2,2-dichlorovinyl)cyclopropanecarboxylate]",insecticidal and acaricidal activity,harmful organisms,has insecticidal and acaricidal activity
"CNC(=O)Oc1cccc(C)c1 [MTMC, m-Tolyl N-methylcarbamate]",Mortality (%) after 24 hours,[4]; as 2% dust,30%
m-Isopropylphenoxy N-methylcarbamate [MIPC],TLm48 (ppm),carps,> 5 ppm
"CC1(C)C(C=C(Cl)Cl)C1C(=O)OC(C#N)c1cccc(Oc2ccc(Br)cc2)c1 (racemic) [m-(p-bromophenoxy)-α-cyanolbenzyl trans- or trans-rich-2,2-dimethyl-3-(2,2-dichlorovinyl)cyclopropanecarboxylate]",Mortality (%) after 24 hours,[4]; as 0.05% dust,85%
same,LD50 at 24 h,in vivo,> 2000 mg/kg
same,Density index After 2 days,[3]; as 0.1% dust,5
same,Density index After 15 days,[3]; as 0.1% dust,25
"CNC(=O)Oc1ccc(C)c(C)c1 [MPMC, 3,4-Xylyl N-methylcarbamate]",Knock-down ratio (%) after 3 hours,[1]; [6],10%
same,mortality at 0.0125 %,[1],10%
same,Density index After 2 days,[3]; as 3% dust,7
same,Density index After 15 days,[3]; as 3% dust,60
"CNC(=O)Oc1ccccc1OC(C)C [PHC, 2-Isopropoxyphenyl N-methylcarbamate]",LC50 at 48 h,[2]; as 0.3% dust,> 5 µg/mL
"CNC(=O)Oc1cccc2ccccc12 [NAC, 1-Naphthyl N-methylcarbamate]",mortality at 0.0125 %,[1],10%
"CC1(C)[C@H](C=C(Cl)Cl)[C@H]1C(=O)OC(C#N)c1cccc(Oc2ccc(Br)cc2)c1 (relative stereo) [Compound of the formula (I) [dl(acid moiety)-trans isomer], m-(p-bromophenoxy)-α-cyanolbenzyl trans- or trans-rich-2,2-dimethyl-3-(2,2-dichlorovinyl)cyclopropanecarboxylate]",LD50 at 24 h,in vivo,> 2000 mg/kg
same,Mortality (%),[5]; as 0.1% dust,20%
same,Density index After 2 days,[3]; as 0.1% dust,3
same,Density index After 15 days,[3]; as 0.1% dust,18
same,LC50 at 48 h,[2]; as 0.1% dust,> 5 µg/mL
"CCCOP(=O)(OCCC)Oc1ccc(SC)cc1 [Kayaphos, O,O-Di-n-propyl p-methylthiophenylphosphate]",Mortality (%) after 24 hours,[4]; as 2% dust,43%
"COP(=S)(OC)Oc1ccc([N+](=O)[O-])c(C)c1 [Sumithion, O,O-Dimethyl O-(3-methyl-4-nitrophenyl)phosphorothioate]",mortality at 0.0225 %,[1],15%
same,Knock-down ratio (%) after 3 hours,[1]; in vivo,0%
same,Mortality (%) after 24 hours,[4]; as 2% dust,10%
same,LD50 at 24 h,in vivo,> 1000 mg/kg
same,Mortality (%),[5]; as 3% dust,70%
same,Density index After 2 days,[3]; as 5% dust,60
same,Density index After 15 days,[3]; as 5% dust,95
CC1(C)C(C=C(Cl)Cl)C1C(=O)OC(C#N)c1cccc(Oc2ccc(Br)cc2)c1 (racemic),Knock-down ratio (%) after 3 hours,[1]; [7],50%
same,Mortality (%) after 24 hours,[1]; [7],80%
"CCC(C)c1ccccc1OC(=O)NC (centres unmarked) [BPMC, 2-sec-Butylphenyl N-methylcarbamate]",Knock-down ratio (%) after 3 hours,[1]; [6],3%
same,mortality at 0.0125 %,[1]; [6],3%
"COP(=S)(OC)Oc1ccc(SC)c(C)c1 [Baycid, O,O-Dimethyl O-[3-methyl-4-(methylthio)phenyl]thiophosphate]",mortality at 0.0225 %,[1],20%
same,Knock-down ratio (%) after 3 hours,[1]; in vivo,0%
